According to patent US9132134B2, “Methods for treating GI tract disorders” (Neurogastrx, Inc., priority 2012, dated 2015):
pIC50: −log10 of the molar value. Several values for one entry are separate records, joined by “and”; a condition that tells them apart may be missing. Identical values can stand only once.

What was measured:
[1] = tested on: gastric motility in canines; assay: Antral manometry (gastric motility) in canines; type: in vivo, canine; conditions: for motor dysfunction: canines
Method: Animals were fed an ad libitum chow diet (LabDiet®). After an overnight fast, the dogs were anesthetized with Pentothal (sodium thiopental, 11 mg/kg IV; Abbott Laboratories, North Chicago, Ill.) and maintained on 2-4% isoflurane (Abbott Laboratories) in oxygen (1 L/min) carrier gases delivered from a ventilator after endotracheal intubation. A cannula was placed in the jejunum 20 cm distal to the pylorus for the assessment of antral motility. Dogs were allowed to recover in their individual cages for 2 weeks. All experiments were performed after the dogs were completed recovered from the surgical procedure. The study was performed according to the National Institutes of Health Guidelines on the use of laboratory animals and approved by the Animal Care and Use Committee of the University of Texas Medical Branch at Galveston, Tex. To investigate the effect of the drugs on antral manometry, the study of each drug dose was done on three randomized sessions on separate days following the consumption of one can of solid dog food: 1) a Control session: In which animals received the vehicle only; 2) Dose I session: in which the lower dose of the drug was used; and 3) Dose II session: in which the higher dose of the drug was used (please refer to table for drug doses). Drug administration was performed according to Table 4, below. [table] Antral manometry was performed as follows. Following an overnight fast, an intraluminal water-perfused manometry catheter was inserted into the antrum through the jejunal cannula. Antral manometry recording was initiated after the consumption of one can of solid food and continued for 3 hours. The catheter contained 3 manometric sensors at a 1 cm interval. Dogs were given 10 minutes of accommodation, prior to the start of the recording. For data analysis, motility index (MI), defined as the integrated area (area under curve—AUC) between baseline and contractions per hour, was calculated. For statistical analysis, the Student's t-test was used for assessment of individual differences between groups (High dose, low dose of each drug) compared to control—Microsoft® Excel 2002). All values are expressed as mean±SEM. Significance was considered when p value was ≦0.05.

D3 = D3 (Homo sapiens (Human), UniProt P35462); assay: Radioligand binding affinity, D3
Chain of D3 (P35462 whole entry): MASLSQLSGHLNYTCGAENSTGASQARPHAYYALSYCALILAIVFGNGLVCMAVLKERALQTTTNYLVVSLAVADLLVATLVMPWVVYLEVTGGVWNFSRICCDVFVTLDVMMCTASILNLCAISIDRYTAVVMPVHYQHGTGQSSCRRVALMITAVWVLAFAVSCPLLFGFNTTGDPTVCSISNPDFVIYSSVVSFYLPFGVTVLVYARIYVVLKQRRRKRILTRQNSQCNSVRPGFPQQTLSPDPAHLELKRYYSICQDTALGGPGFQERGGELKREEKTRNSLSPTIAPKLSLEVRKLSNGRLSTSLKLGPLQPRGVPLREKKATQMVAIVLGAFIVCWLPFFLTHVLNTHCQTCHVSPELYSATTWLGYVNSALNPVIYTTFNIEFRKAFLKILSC

dopamine D2 receptor = dopamine D2 receptor (Homo sapiens (Human), UniProt P14416); assay: Radioligand binding assay, [3H]spiperone, membranes of D2 receptor expressing cells; conditions: [3H]spiperone competition; read-out: Radioligand Binding Affinity (Ki, nM) D2
Chain of dopamine D2 receptor (P14416 whole entry, species assumed): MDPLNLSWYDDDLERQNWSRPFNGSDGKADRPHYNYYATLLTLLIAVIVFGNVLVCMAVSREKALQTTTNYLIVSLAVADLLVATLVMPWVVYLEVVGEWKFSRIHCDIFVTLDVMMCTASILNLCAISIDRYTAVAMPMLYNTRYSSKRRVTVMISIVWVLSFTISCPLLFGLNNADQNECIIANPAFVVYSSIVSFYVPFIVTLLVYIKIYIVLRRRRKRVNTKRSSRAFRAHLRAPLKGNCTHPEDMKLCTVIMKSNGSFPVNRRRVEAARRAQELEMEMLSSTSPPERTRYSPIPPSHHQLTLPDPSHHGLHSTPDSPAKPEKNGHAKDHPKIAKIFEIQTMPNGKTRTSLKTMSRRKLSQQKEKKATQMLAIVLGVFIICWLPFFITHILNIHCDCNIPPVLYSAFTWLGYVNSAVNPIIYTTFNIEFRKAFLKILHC

gastric emptying in rats [2] = assay: Solid gastric emptying in rats; type: in vivo, rat (Sprague-Dawley)
Method: Animals: […] The animals received a standard laboratory rat chow and tap water ad libitum. The rats were around 400 g at 14 weeks age when used in gastric emptying study. Drugs: S-Carbidopa was purchased from Sigma (#: C1335). Stock solution of S-Carbidopa was prepared at 5 mg/ml using DMSO as solvent. 80 μl stock solution was further diluted into 1 ml distilled water to make 0.4 mg/ml. The effect of S-Carbidopa (1 mg/kg) on solid gastric emptying was studied. Procedures: Male SD rats were involved in this study. Rats were fasted in cages with metal wired mesh for 24 hours with free access to water; S-carbidopa (1 mg/kg) was administered to the rats by oral gavage. Control rats were not administered S-carbidopa. 15 minutes following administration, rats were given access to 2 g of rat chow pellets for ten minutes. All rats completely ingested the chow within the 10 minute time frame. Rats were sacrificed by sodium pentobarbital (100 mg/kg) overdose 90 min after feeding. The stomach was surgically isolated and removed. Gastric contents were recovered from the stomach, air dried for 48 hours and then weighed. Solid gastric emptying was calculated according to the following formula: Gastric emptying (%)=[1−(dried gastric content in g)/2 g]×100. All values are expressed as mean±SEM.

[3] = tested on: canine cardiac action potentials; assay: Canine cardiac action potentials by electrocardiography and telemetry; type: in vivo; conditions: dogs; for QTc intervals as compared to vehicle-administered animals: oral gavage
Source text: Surgical Implantation of the Telemetry Device and ECG Leads. Anesthesia is introduced to dogs. Balanced gaseous anesthesia is used throughout the surgical procedure. Once anesthetized, animals are shaved and surgically scrubbed, encompassing surgical sites of the right inguinal area, chest and right lateral abdomen. Throughout the surgical procedure, animals are monitored for continuous assessment of vital signs. An incision is made along the right medial thigh and the femoral artery exposed by blunt dissection. Another incision is made in the lateral lumbar area cranial to the iliac crest for a tunneling needle to be passed subcutaneously from the incision on the medial thigh to the lumbar incision. A blood pressure catheter is passed through the needle from the lumbar incision and the needle removed. The femoral artery is ligated distally and incised to insert a catheter that is advanced until the tip resided in the femoral artery/abdominal aorta. The catheter is then secured by ligation. The incision in the lumbar area is enlarged and a subcutaneous pocket created in the left dorsal lumbar area to hold the transmitter body. The transmitter (e.g., Data Sciences International, St Paul, Minn., USA) is inserted into the subcutaneous pocket and secured body. Electrocardiography (ECG) leads are positioned. The incision is closed. Postoperative recovery lasts, e.g., about 2 weeks during which supplemental analgesics/antibiotics are administered as needed. Once the postoperative recovery period is complete, the animal is examined for study acceptability by the staff veterinarian and the implanted transmitter signal verified.
Study Design. […] ECGs, heart rate and arterial blood pressure data are recorded 1 hour prior to and then continuously for at least 6 hours following compound and/or vehicle administration. A blood sample for determination of compound plasma concentrations is collected from all subjects at approximately 6 h post-dose.
ECG Analysis. An ECG waveform morphology assessment, for the entire monitoring period, is completed for each dog by, e.g., a safety pharmacologist or veterinarian cardiologist. Standard ECG intervals (PR, RR, QRS and QT) are automatically measured by the data acquisition system and reported as, e.g., 10 min averages. The signals are collected with Data Sciences International Systems hardware. PR and QT manual overreads are conducted as appropriate. The manual measurements are completed from 50 mm s^−1 tracings at 30 min intervals. A mean of the three waveforms per time point are reported. QT intervals are corrected for heart rate (QTc) values by, e.g., using the formula by Funck-Bretano and Jaillon (1993).
Statistical Analysis. […] Dose-level averages (and accompanying standard deviation (s.d.) of these baseline-adjusted 10 min averages are calculated across study animals. ANOVA (e.g., repeated measures ANOVA) are applied to these baseline-adjusted averages. Pairwise t-tests are applied within the ANOVA to identify the presence of significant differences of the dose levels relative to vehicle. These t-tests are performed at a 0.05/2=0.025 significance level, so that the overall error rate across the comparisons in a given interval are not higher than 0.05. ECG interval data (reported at 30 min intervals) are analyzed using, e.g., repeated-measures ANOVA techniques similar to the systemic blood pressure and heart rate data described above.

[4] = Therapeutic plasma concentrations
hERG channel = hERG channel (Homo sapiens (Human), UniProt Q12809); assay: hERG voltage clamp assay in hERG-expressing cultured cells; type: cell-based; conditions: for inhibition at 0.1 µM / inhibition at 1 µM / inhibition at 10 µM: human, hERG-expressing cultured cells, read-out: hERG Activity (% Inhibition of Tail Current); for inhibition at 0.1 µM: 100 nM; for pIC50: read-out: concentration necessary to inhibit 50% of the tail currents mediated by hERG channels
Chain of hERG channel (Q12809 whole entry): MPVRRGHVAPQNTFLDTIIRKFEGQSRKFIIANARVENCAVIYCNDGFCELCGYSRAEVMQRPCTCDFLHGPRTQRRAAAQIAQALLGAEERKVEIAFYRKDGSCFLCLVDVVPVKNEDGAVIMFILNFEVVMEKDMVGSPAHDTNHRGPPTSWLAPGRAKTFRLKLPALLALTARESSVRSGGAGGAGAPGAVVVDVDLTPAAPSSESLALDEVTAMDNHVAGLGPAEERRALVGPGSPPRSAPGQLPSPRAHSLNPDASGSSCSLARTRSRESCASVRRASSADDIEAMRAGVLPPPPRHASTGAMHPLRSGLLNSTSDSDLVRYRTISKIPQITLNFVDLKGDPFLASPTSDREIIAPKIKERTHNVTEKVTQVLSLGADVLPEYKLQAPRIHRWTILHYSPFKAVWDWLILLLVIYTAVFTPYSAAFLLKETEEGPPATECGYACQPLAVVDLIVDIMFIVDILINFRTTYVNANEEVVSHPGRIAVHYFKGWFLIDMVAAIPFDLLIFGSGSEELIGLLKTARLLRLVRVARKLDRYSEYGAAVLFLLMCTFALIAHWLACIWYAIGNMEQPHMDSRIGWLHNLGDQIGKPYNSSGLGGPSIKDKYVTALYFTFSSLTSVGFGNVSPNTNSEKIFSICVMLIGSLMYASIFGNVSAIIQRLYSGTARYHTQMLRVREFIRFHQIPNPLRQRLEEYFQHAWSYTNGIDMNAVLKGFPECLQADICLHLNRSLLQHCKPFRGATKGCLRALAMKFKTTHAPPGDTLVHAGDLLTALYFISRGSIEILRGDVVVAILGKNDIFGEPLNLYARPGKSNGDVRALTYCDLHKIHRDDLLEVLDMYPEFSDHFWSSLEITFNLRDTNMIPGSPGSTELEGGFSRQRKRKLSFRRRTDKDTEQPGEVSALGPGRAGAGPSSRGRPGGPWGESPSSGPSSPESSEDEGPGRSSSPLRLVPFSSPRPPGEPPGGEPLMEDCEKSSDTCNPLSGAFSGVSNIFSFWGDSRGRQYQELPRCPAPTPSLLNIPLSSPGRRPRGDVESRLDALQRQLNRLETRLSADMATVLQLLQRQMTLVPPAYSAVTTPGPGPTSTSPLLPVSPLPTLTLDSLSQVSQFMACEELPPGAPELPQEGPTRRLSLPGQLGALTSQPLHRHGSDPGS

α1 = assay: Radioligand binding affinity, α1
5HT2 = assay: Radioligand binding affinity, 5HT2
5HT4 = 5HT4 (Homo sapiens (Human), UniProt Q13639); assay: Radioligand binding affinity, 5HT4
Chain of 5HT4 (Q13639 whole entry, species assumed): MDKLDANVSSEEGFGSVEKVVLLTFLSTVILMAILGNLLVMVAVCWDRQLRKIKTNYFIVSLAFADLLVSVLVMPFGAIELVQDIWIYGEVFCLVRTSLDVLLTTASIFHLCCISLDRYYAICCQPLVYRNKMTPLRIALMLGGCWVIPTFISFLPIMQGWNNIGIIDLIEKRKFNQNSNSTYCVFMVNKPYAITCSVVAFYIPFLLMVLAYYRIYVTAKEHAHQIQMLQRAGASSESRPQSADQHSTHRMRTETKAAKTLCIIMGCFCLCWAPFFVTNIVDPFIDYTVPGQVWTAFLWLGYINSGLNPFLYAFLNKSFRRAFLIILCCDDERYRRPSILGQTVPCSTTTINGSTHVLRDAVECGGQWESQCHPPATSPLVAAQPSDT

5HT3 = 5HT3 (Homo sapiens (Human), UniProt P46098); assay: Radioligand binding affinity, 5HT3
Chain of 5HT3 (P46098 24-478, species assumed): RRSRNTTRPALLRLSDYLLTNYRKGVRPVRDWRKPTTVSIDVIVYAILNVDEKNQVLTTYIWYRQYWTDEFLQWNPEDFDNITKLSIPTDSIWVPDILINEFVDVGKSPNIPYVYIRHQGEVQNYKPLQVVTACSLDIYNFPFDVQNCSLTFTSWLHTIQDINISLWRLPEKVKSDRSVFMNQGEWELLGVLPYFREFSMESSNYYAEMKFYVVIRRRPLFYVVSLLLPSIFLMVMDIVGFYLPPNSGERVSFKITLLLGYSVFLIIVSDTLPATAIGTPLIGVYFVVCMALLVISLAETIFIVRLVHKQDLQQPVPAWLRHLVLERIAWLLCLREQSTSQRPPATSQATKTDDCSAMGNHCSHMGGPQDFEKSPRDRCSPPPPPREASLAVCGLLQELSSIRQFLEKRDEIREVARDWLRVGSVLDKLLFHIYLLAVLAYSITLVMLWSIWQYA

H1 = H1 (Homo sapiens (Human), UniProt P35367); assay: Radioligand binding affinity, H1
Chain of H1 (P35367 whole entry): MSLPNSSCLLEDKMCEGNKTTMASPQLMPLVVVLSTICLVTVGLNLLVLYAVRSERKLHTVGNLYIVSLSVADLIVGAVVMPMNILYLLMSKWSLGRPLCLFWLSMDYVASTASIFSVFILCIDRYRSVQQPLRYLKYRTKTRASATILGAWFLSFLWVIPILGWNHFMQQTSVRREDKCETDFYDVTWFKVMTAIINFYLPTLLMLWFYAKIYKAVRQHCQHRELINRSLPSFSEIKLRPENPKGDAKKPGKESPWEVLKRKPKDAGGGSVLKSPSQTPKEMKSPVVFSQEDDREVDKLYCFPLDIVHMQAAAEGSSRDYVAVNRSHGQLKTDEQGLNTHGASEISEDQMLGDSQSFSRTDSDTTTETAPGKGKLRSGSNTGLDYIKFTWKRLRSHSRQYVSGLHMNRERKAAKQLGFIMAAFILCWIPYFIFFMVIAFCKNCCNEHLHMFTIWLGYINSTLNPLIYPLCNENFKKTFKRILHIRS

gastric emptying in rats [5] = assay: Solid gastric emptying in rats; type: in vivo, rat (Sprague-Dawley); conditions: preliminary

Ki (D3)	motor dysfunction [1]	Ki (α1)	Ki (5HT2)	Radioligand Binding Affinity (Ki, nM) 5HT4 (5HT4)	Radioligand Binding Affinity (Ki, nM) 5HT3 (5HT3)	SMILES	Ki (dopamine D2 receptor)	QTc intervals as compared to vehicle-administered animals [3]	inhibition at 0.1 µM (hERG channel)	inhibition at 1 µM (hERG channel)	inhibition at 10 µM (hERG channel)	pIC50 (hERG channel)	also measured
						Cl.NCCc1ccc(O)c(O)c1 [dopamine hydrochloride, Dopamine hydrochloride]							motility index (MI), antral manometry ([1]; 50 mg/canine IV, immediately before meal, p=0.06): decreased MI in all channels
	no motor dysfunction was observered					C[C@@](Cc1ccc(O)c(O)c1)(NN)C(=O)O [S-Carbidopa, (2S)-3-(3,4-dihydroxyphenyl)-2-hydrazino-2-methylpropanoic acid]		no significant increases					Gastric emptying (%), mean of the 3 rats (gastric emptying in rats [2]; 1 mg/kg oral gavage, 90 min after feeding): 68.2%; solid gastric emptying compared to control rats (gastric emptying in rats [2]; 1 mg/kg, rats, initial results): improves solid gastric emptying; Gastric emptying (%) (gastric emptying in rats [2]; individual rat, 1 mg/kg oral gavage, 90 min after feeding): 55% and 62% and 87.5%; stomach content (gastric emptying in rats [2]; individual rat, 1 mg/kg oral gavage, dried gastric content (g) 90 min after 2 g chow): 0.9 and 0.76 and 0.25; motor dysfunction (gastric emptying in rats [2]; rats): no motor dysfunction was observed; motility index (MI), antral manometry ([1]; 1 mg/kg IV, 15 min prior to meal, vs control, p=0.05): robustly increased MI in all three of the channels tested
> 100 nM		210 nM	370 nM	Inactive	Inactive	CS(=O)(=O)c1ccc2c(c1)N(CCCN1CCC(C(=O)O)CC1)c1ccccc1S2 [Metopimazine acid]		no significant increases	0.2%	4%	11%	< 5.00	Therapeutic plasma concentrations [4]: 300 to 900 nM; Ki (H1): 140 nM
						CN(CCOc1ccc(NS(C)(=O)=O)cc1)CCc1ccc(NS(C)(=O)=O)cc1 [dofetilide]							incidence of premature ventricular contractions, T-wave abnormalities, and right bundle branch block ([3]; 0.3 mg/kg oral gavage): increases; QTc intervals ([3]; 0.3 mg/kg oral gavage, post-dose period of 1-6 hours): increased
0.61 nM	no motor dysfunction was observered	1.9 nM	15 nM	Inactive	Inactive	CS(=O)(=O)c1ccc2c(c1)N(CCCN1CCC(C(N)=O)CC1)c1ccccc1S2 [Metopimazine, 1-[3-[2-(methylsulfonyl)-10H-phenothiazin-10-yl]propyl]-piperidine-4-carboxamide]	0.07 nM	no significant increases	4.5%	32%	82%	~5.52	increase in gastric emptying as compared to vehicle control (gastric emptying in rats [5]; 3 mg/kg): about 40%; increase in gastric emptying as compared to vehicle control (gastric emptying in rats [5]; 10 mg/kg): about 18%; increase in gastric emptying as compared to vehicle control (gastric emptying in rats [5]; pooling the 3 mg/kg and 10 mg/kg doses): about 20%

SMILES	Ki (D3)	motor dysfunction [1]	Ki (α1)	Ki (5HT2)	Radioligand Binding Affinity (Ki, nM) 5HT4 (5HT4)	Radioligand Binding Affinity (Ki, nM) 5HT3 (5HT3)	Ki (dopamine D2 receptor)	QTc intervals as compared to vehicle-administered animals [3]	inhibition at 0.1 µM (hERG channel)	inhibition at 1 µM (hERG channel)	inhibition at 10 µM (hERG channel)	pIC50 (hERG channel)	also measured
CCN(CC)CCNC(=O)c1cc(Cl)c(N)cc1OC [Metoclopramide]	16 nM						64 nM						
